For one experiment, the target named is T1, Recombinant TDO (Homo sapiens, UniProt P48775).
T1 construct: Recombinant TDO or IDO was diluted to 16 ng/uL and 50 uL loaded into wells of a 96-well plate
Briefly: TDO Inhibition Assay (recombinant enzyme, absorbance at 321 nm). It is filed as biochemical. As to conditions: for activity at 10 µM: read-out: TDO Inhibition Assay Screening (Activity, %) 10 μM; for activity at 1 µM: 1 μM test compound, read-out: TDO Inhibition Assay Screening (Activity, %) 1 μM. The procedure: Inhibition of IDO by TDO/IDO test inhibitors was assessed in vitro. A substrate mixture was prepared by mixing equal volumes of 80 mM ascorbic acid diluted in 0.405 M Tris, pH 8.0 and a mixture of […] L-tryptophan, 9,000 units/mL catalase and 40 uM methyene blue. Recombinant TDO or IDO was diluted to 16 ng/uL and 50 uL loaded into wells of a 96-well plate. The reaction was started by the addition of 50 uL substrate mixture. The plate was read in kinetic mode at 321 nm for 5 minutes. The rate of increase of absorbance measured in the absence of a TDO/IDO inhibitor is taken as the maximum rate of enzymatic activity.

Another experiment addresses T2, Recombinant IDO (Homo sapiens, UniProt P14902).
T2 construct: Recombinant TDO or IDO was diluted to 16 ng/uL and 50 uL loaded into wells of a 96-well plate
Briefly: IDO Inhibition Assay (recombinant enzyme, absorbance at 321 nm). As to conditions: for activity at 10 µM: read-out: IDO Inhibition Assay Screening (Activity, %) 10 μM; for activity at 1 µM: 1 μM test compound, read-out: IDO Inhibition Assay Screening (Activity, %) 1 μM. It is filed as biochemical. The procedure: Inhibition of IDO by TDO/IDO test inhibitors was assessed in vitro. […] Recombinant TDO or IDO was diluted to 16 ng/uL and 50 uL loaded into wells of a 96-well plate. The reaction was started by the addition of 50 uL substrate mixture. […] The rate of increase of absorbance measured in the absence of a TDO/IDO inhibitor is taken as the maximum rate of enzymatic activity.

The subject of experiment [1] is HuT78 (human CTCL cell line). In words: Cancer cell cytotoxicity, CellTiter-Glo Luminescent Cell Viability Assay. The following applies: HuT78, read-out: IC50 (μM) cancer cell cytotoxicity. For orientation: ATP-based viability assays read luminescence as a measure of living cells.
Method: (§1) TDO/IDO test compounds were incubated with various cancer cell lines to determine the effect of the test compounds on cancer cell death. The CellTiter-Glo Luminescent Cell Viability Assay was used to determine cell cytotoxicity by determining the number of viable cells in culture based on quantitation of ATP, which signals the presence of metabolically active cells.
The subject of experiment [2] is HT29 (human colorectal adenocarcinoma). The experiment is described as above. As to conditions: HT-29, read-out: IC50 (μM) cancer cell cytotoxicity.
Method: as §1
The test system of experiment [3] is Pano2 (murine pancreatic). Described as above. The following applies: Mus musculus, PanO2, read-out: IC50 (μM) cancer cell cytotoxicity.
Method: as §1
A further experiment relates to GL261 (murine glioma). Described as above. The following applies: Mus musculus, GL261, read-out: IC50 (μM) cancer cell cytotoxicity.
In the next experiment the test system is CT26 (murine colon). The experiment is described as above. As to conditions: Mus musculus, CT26, read-out: IC50 (μM) cancer cell cytotoxicity.
Experiment [4] relates to U87MG (human glioblastoma). The description is as above. As to conditions: U-87 MG, read-out: IC50 (μM) cancer cell cytotoxicity.
Method: as §1
Experiment [5] has as its system SCC4 (human squamous cell carcinoma). Described as above. The following applies: SCC-4, read-out: IC50 (μM) cancer cell cytotoxicity.
Method: as §1
Where [6] appears, read: read-out: TDO Inhibition Assay Dose Resp. (IC50).
Setting [7] is: 10 μM test compound, remaining enzyme activity.
The mark [8] stands for this setting: read-out: IDO Inhibition Assay Dose Resp. (IC50).

Read-outs that look alike come from different tables or passages of the source.

T1 sequence (P48775 whole entry): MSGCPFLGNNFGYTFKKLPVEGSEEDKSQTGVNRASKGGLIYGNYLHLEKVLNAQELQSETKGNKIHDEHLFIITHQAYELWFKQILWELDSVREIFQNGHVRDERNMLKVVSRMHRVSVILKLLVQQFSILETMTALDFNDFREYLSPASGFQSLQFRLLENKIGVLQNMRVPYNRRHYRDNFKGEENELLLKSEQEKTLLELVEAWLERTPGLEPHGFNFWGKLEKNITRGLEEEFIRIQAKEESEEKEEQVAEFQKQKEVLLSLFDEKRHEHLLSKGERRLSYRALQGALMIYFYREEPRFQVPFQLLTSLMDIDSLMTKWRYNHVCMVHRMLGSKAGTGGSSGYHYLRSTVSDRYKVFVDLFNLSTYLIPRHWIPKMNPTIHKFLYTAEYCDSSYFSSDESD
T2 sequence (P14902 whole entry): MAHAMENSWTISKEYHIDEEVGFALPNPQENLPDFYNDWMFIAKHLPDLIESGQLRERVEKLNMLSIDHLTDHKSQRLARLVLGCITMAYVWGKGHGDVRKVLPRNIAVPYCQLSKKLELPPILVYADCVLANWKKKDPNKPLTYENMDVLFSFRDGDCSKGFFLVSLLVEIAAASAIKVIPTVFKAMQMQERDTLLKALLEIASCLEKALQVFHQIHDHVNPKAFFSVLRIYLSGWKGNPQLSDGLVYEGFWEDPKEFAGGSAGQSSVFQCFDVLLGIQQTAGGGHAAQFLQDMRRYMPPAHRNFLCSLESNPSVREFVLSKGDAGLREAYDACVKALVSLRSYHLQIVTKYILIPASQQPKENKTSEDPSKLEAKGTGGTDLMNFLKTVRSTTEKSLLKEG
Method for CT26 (murine colon): as §1
Method for GL261 (murine glioma): as §1

For the compound `C=C(c1ccccc1OCc1cccc(Cl)c1)n1ccnc1` [Cloconazole], the half-inhibitory concentration (IC50) – broadly, the concentration needed to halve the response being measured – at Recombinant TDO (setting [6]) amounted to 0.532 µM; in experiment [1] it was 19.4 µM; in experiment [2], 10.7 µM; in experiment [3] it was 9.61 µM; in the experiment on GL261 (murine glioma), 20.3 µM; in the experiment on CT26 (murine colon), 8.06 µM. Moreover, the IC50 is 26.7 µM in [4] and 46.2 µM in experiment [5]. The activity at 10 µM on Recombinant TDO was found to be 5%; at Recombinant IDO it was 76%.
As for `O=C(O)c1ccc(-n2nc(-c3ccccc3O)nc2-c2ccccc2O)cc1` [Deferasirox], the activity at 1 µM at Recombinant TDO (remaining enzyme activity) was 107%; at Recombinant IDO (remaining enzyme activity), 90%. The activity at 10 µM at Recombinant TDO (setting [7]) is 69%; on Recombinant IDO (setting [7]), 85%.
Consider `Clc1ccc(COC(Cn2ccnc2)c2ccc(Cl)cc2Cl)cc1` (stereo not shown) [Econazole], for which the activity at 1 µM on Recombinant TDO (remaining enzyme activity) stood at 80%; on Recombinant IDO (remaining enzyme activity) it was 71%. Further, the activity at 10 µM on Recombinant TDO (setting [7]) is 20%; at Recombinant IDO (setting [7]), 28%. In addition, the IC50 on Recombinant TDO (setting [6]) came out at 5.35 µM; on Recombinant IDO, 4.91 µM.
Take `CC1=NN(c2ccc(C)c(C)c2)C(=O)/C1=N\Nc1cccc(-c2cccc(C(=O)O)c2)c1O` [Eltrombopag]: the activity at 10 µM at Recombinant TDO (setting [7]) is 5%; on Recombinant IDO (setting [7]) it was 83%. Moreover, the IC50 at Recombinant TDO (setting [6]) is 1.05 µM.
For `Clc1ccc(C(Cn2ccnc2)OCc2ccc(Sc3ccccc3)cc2)c(Cl)c1` (stereo not shown) [Fenticonazole], the values for the activity at 1 µM at Recombinant TDO (remaining enzyme activity) and at Recombinant IDO (remaining enzyme activity) were 89% and 85%, respectively. The activity at 10 µM was -34% on Recombinant TDO (setting [7]) and 56% at Recombinant IDO (setting [7]). The IC50 is 2.73 µM on Recombinant TDO (setting [6]); 9.16 µM in [1]; 13.9 µM in experiment [2]; 16.1 µM in [3]; 15.2 µM in the experiment with GL261 (murine glioma); 7.6 µM with CT26 (murine colon). Moreover, the figures for the 50% inhibitory concentration (IC50) in [4] and in [5] were 15.6 µM and 78.8 µM, respectively.
Consider `NS(=O)(=O)NCCNc1nonc1C(=NO)Nc1ccc(F)c(Br)c1` [INCB024360], for which the half-maximal inhibitory concentration (IC50) in [1] amounted to 72.5 µM; in [2], 53.7 µM; in experiment [3], 53.5 µM; with GL261 (murine glioma), 48.9 µM; with CT26 (murine colon) it was 69.9 µM.
In the case of `Clc1ccc(C(Cn2ccnc2)OCc2c(Cl)cccc2Cl)c(Cl)c1` (stereo not shown) [Isoconazole], the IC50 at Recombinant TDO was 4.12 µM; at Recombinant IDO, 14.6 µM; in experiment [1], 15.7 µM; in [2], 14.8 µM; in [3], 12.6 µM; with GL261 (murine glioma), 15.6 µM. The half-maximal inhibitory concentration (IC50) came to 14.8 µM in the experiment on CT26 (murine colon), 63.9 µM in [4] and 83.8 µM in [5]. Further, the activity at 1 µM on Recombinant TDO (remaining enzyme activity) worked out at 58%; on Recombinant IDO (remaining enzyme activity), 76%. Besides, the activity at 10 µM at Recombinant TDO (setting [7]) stood at 17%; on Recombinant IDO (setting [7]), 53%.
For `CCC(C)n1ncn(-c2ccc(N3CCN(c4ccc(OCC5COC(Cn6cncn6)(c6ccc(Cl)cc6Cl)O5)cc4)CC3)cc2)c1=O` (stereo not shown) [Itraconazole], the activity at 1 µM was determined as 93% at Recombinant TDO (remaining enzyme activity) and 72% at Recombinant IDO (remaining enzyme activity). Also, the activity at 10 µM on Recombinant TDO (setting [7]) turned out to be 82%; at Recombinant IDO (setting [7]), 56%. The values for the IC50 at Recombinant TDO (setting [6]) and on Recombinant IDO (setting [8]) were 47 µM and 17.4 µM, respectively.
Regarding `Clc1cccc(C(c2ccc3[nH]cnc3c2)n2ccnc2)c1` (stereo not shown) [Liarozole], the activity at 1 µM at Recombinant TDO (remaining enzyme activity) worked out at 89%; on Recombinant IDO (remaining enzyme activity), 99%. For the same compound, the values for the activity at 10 µM on Recombinant TDO (setting [7]) and on Recombinant IDO (setting [7]) were 43% and 88%, respectively. Moreover, the results for the concentration for half-maximal inhibition (IC50) at Recombinant TDO (setting [6]) and on Recombinant IDO (setting [8]) were 9.33 µM and 63.4 µM, respectively.
Consider `Clc1ccc(COC(Cn2ccnc2)c2ccc(Cl)cc2Cl)c(Cl)c1` (stereo not shown) [Miconazole], for which the activity at 1 µM at Recombinant TDO (remaining enzyme activity) amounted to 74%; on Recombinant IDO (remaining enzyme activity), 67%. For the same compound, the activity at 10 µM came out at 16% at Recombinant TDO (setting [7]) and 27% on Recombinant IDO (setting [7]). Besides, the 50% inhibitory concentration (IC50) is 3.7 µM at Recombinant TDO (setting [6]) and 4.69 µM at Recombinant IDO.
As to `O=C(Nc1ccc([N+](=O)[O-])cc1Cl)c1cc(Cl)ccc1O` [Niclosamide], the activity at 1 µM at Recombinant TDO (remaining enzyme activity) is 82%; on Recombinant IDO (remaining enzyme activity), 84%. The activity at 10 µM came out at 62% at Recombinant TDO (setting [7]) and 75% at Recombinant IDO (setting [7]).
For `Clc1ccc(C(Cn2ccnc2)OCc2csc3c(Cl)cccc23)c(Cl)c1` (stereo not shown) [Sertaconazole], the activity at 1 µM on Recombinant TDO (remaining enzyme activity) amounted to 74%; at Recombinant IDO (remaining enzyme activity), 63%. In addition, the values for the activity at 10 µM on Recombinant TDO (setting [7]) and at Recombinant IDO (setting [7]) were 15% and 37%, respectively. Further, the half-maximal inhibitory concentration (IC50) at Recombinant TDO (setting [6]) was 4.07 µM; on Recombinant IDO it was 8.25 µM; in [1] it was 17.7 µM; in [2] it was 11.9 µM; in experiment [3] it was 16.1 µM; in the experiment on GL261 (murine glioma), 30.1 µM. In addition, the figures for the IC50 (in the experiment on CT26 (murine colon); in experiment [4]) were 10.9 µM and 13.9 µM, respectively.
In the case of `Clc1ccc(C(Cn2ccnc2)OCc2ccsc2Cl)c(Cl)c1` (stereo not shown) [Tioconazole], the activity at 1 µM is 83% at Recombinant TDO (remaining enzyme activity) and 76% on Recombinant IDO (remaining enzyme activity). For the same compound, the activity at 10 µM at Recombinant TDO (setting [7]) came out at 28%; on Recombinant IDO (setting [7]), 47%. Also, the half-maximal inhibitory concentration (IC50) on Recombinant TDO (setting [6]) came out at 4.16 µM; on Recombinant IDO (setting [8]), 9.33 µM; in experiment [1], 12.1 µM; in [2], 18.2 µM; in experiment [3] it was 22.2 µM; in the experiment on GL261 (murine glioma), 27 µM. Moreover, the IC50 in the experiment with CT26 (murine colon) worked out at 14 µM; in experiment [4], 26.1 µM; in [5] it was 28.2 µM.

Values taken from patent publication US20160361298A1, “METHODS AND COMPOSITIONS FOR TREATING CANCER” (Globavir BioSciences, Inc., priority 2015, published 2016).
